Format in all cases: cell-based
Experiment [1] has as its target T1, CDK2 (Homo sapiens, UniProt P24941).
T1 construct: host or cells: HEK293-CDK2-Hibit
The experiment can be described thus: HiBit Assay Protocol for CDK2 (HIBIT protein quantification, degradation). The following applies: HEK293-CDK2-Hibit cells, compound treatment for 6 hours; for DC50: ABS DC50. Put shortly:
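HEK293 cells expressing HiBiT-tagged CDK2 were seeded overnight, then treated 6 h with a 3-fold, 10-point compound dilution series. CDK2 levels were read as luminescence after lytic HiBiT/LgBiT detection, normalised to DMSO-only and medium-only controls, and DC50 derived by curve fitting.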
On the technique in general: HiBiT is a short tag that completes a luciferase, so light tracks the accessible tagged protein.

For experiment [2], the target named is T2, CCNE1 (Homo sapiens, UniProt P24864).
T2 construct: host or cells: HEK293-CCNE1-Hibit
Briefly: HiBit Assay Protocol for CCNE1 (HIBIT protein quantification, degradation). Conditions: HEK293-CCNE1-Hibit cells, compound treatment for 6 hours. Put shortly: (§1)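 HEK293 cells expressing HiBiT-tagged CCNE1 were seeded overnight, then treated 6 h with a 3-fold, 10-point compound dilution series. HiBiT levels were read by lytic LgBiT luminescence and normalised to DMSO-only (high) and medium-only (low) controls. DC50 was derived by curve fitting.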

Experiment [3] deals with T3, CCNE1 (Homo sapiens, UniProt P24864+P24941).
T3 construct: host or cells: HEK293-CCNE1-Hibit
The experiment is described as above. The following applies: HEK293-CCNE1-Hibit cells, compound treatment for 6 hours, ABS DC50. In a few lines: as §1

In experiment [4] the target is T4, CDK9 (Homo sapiens, UniProt P50750).
T4 construct: host or cells: HEK293-CDK9-Hibit
The experiment can be described thus: HiBit Assay Protocol for CDK9 (HIBIT protein quantification, degradation). Conditions: HEK293-CDK9-Hibit cells, compound treatment for 6 hours; for Dmax: read-out: CDK9 HIBIT Protein Quantification Maximum; for DC50: ABS DC50. In a few lines: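 HEK293 cells carrying HiBiT-tagged CDK9 treated 6 h with compounds in a 3-fold, 10-point dilution series. CDK9 level read by lytic Nano-Glo HiBiT/LgBiT luminescence and normalized to 0.1% DMSO (high) and medium-only (low) controls. DC50 from curve fitting.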

Where two headings read alike, the source gives them in different places.

T4 sequence (P50750 whole entry): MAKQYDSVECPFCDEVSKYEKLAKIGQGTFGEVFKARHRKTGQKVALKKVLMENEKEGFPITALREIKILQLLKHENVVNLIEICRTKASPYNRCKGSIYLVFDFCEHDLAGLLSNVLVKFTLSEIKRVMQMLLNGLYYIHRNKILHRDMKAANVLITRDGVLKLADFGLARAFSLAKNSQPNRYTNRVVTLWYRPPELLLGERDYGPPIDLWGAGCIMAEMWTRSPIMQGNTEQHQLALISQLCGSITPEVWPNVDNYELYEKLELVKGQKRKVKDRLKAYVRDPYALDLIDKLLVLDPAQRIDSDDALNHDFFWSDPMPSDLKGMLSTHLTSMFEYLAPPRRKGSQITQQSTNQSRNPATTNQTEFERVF
T3 sequence (P24864 whole entry, one chain of several): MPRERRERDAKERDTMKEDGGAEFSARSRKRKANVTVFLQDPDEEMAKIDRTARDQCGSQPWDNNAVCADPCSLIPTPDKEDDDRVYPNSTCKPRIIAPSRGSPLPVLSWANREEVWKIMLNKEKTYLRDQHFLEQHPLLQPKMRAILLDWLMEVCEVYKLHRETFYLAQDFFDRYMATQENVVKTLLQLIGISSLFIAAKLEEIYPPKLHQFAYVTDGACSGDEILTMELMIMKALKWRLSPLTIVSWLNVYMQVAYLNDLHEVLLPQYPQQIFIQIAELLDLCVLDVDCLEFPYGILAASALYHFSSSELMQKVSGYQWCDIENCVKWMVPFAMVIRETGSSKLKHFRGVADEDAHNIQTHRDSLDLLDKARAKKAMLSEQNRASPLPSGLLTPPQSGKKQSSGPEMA
T2 sequence (P24864 whole entry): as the sequence (P24864 whole entry, one chain of several) above

By DC50 is commonly meant the concentration at which degradation of the target reaches its halfway point. Turning to `C[C@@H](c1cccc(S(=O)(=O)N2CCC(Nc3ncc4c(n3)N([C@@H]3CCC[C@@H](O)C3)C(=O)C43CC3)CC2)c1)N1CCC(c2ccc3c(N4CCC(=O)NC4=O)nn(C)c3c2)CC1` (single isomer, unassigned) [Compound 152], the “CDK2 HIBIT Protein Quantification Maximum” value in experiment [1] was found to be 88%. The DC50 in experiment [1] is 4.22 nM; in experiment [3], 23.6 nM; in experiment [4], 2170 nM. Moreover, the “CCNE1 HIBIT Protein Quantification Maximum” value in experiment [2] is 53%. Besides, the Dmax in experiment [4] (6 h) is 52%.
Regarding `CC(c1cc(S(=O)(=O)N2CC[C@H](Nc3ncc4c(n3)N([C@@H]3CCC[C@@H](O)C3)C(=O)C43CC3)[C@H](F)C2)ccc1F)N1CCC(c2ccc3c(N4CCC(=O)NC4=O)nn(C)c3c2)CC1` (single isomer, unassigned) [Compound 200, 1-(6-{1-[(1R*)-1-{2-Fluoro-5-[(3R,4S)-3-fluoro-4-{7′-[(1R,3R)-3-hydroxycyclohexyl]-6′-oxospiro[cyclopropane-1,5′-pyrrolo[2,3-d]pyrimidin]-2′-ylamino}piperidin-1-ylsulfonyl]phenyl}ethyl]piperidin-4-yl}-1-methylindazol-3-yl)-1,3-diazinane-2,4-dione], in experiment [1], the “CDK2 HIBIT Protein Quantification Maximum” value is listed as 89% and the DC50 was 3.81 nM. Further, the “CCNE1 HIBIT Protein Quantification Maximum” value in experiment [2] is recorded as 61%. Besides, in experiment [3], the DC50 turned out to be 9.88 nM. In addition, in experiment [4] (6 h), the Dmax came out at 13%.
Consider `Cn1nc(N2CCC(=O)NC2=O)c2cccc(C3CCN(Cc4cccc(S(=O)(=O)N5CCC(Nc6ncc7c(n6)N([C@H]6CCC[C@H](O)C6)C(=O)C76CC6)CC5)c4)CC3)c21` (stereo in doubt) [Compound 146, 1-[7-(1-{[3-(4-{7′-[(1S,3S)-3-hydroxycyclohexyl]-6′-oxospiro[cyclopropane-1,5′-pyrrolo[2,3-d]pyrimidin]-2′-ylamino}piperidin-1-ylsulfonyl)phenyl]methyl}piperidin-4-yl)-1-methylindazol-3-yl]-1,3-diazinane-2,4-dione], for which, in experiment [1], the “CDK2 HIBIT Protein Quantification Maximum” value came to 76% and the DC50 was determined as 30 nM. Besides, the “CCNE1 HIBIT Protein Quantification Maximum” value in experiment [2] came to 82%. Moreover, the half-maximal degradation concentration (DC50) in experiment [3] turned out to be 36.2 nM. Besides, the Dmax in experiment [4] stood at 4%.
Regarding `C[C@H]1CCC[C@H]1N1C(=O)C2(CC2)c2cnc(NC3CCN(S(=O)(=O)N(C)CCCN4CCC(c5cccc6c5n(C)c(=O)n6C5CCC(=O)NC5=O)CC4)CC3)nc21` (stereo partly drawn) [Compound 13, N-(3-{4-[1-(2,6-Dioxopiperidin-3-yl)-3-methyl-2-oxo-1,3-benzodiazol-4-yl]piperidin-1-yl}propyl)-N-methyl-4-{7′-[(1R,2S)-2-methylcyclopentyl]-6′-oxospiro[cyclopropane-1,5′-pyrrolo[2,3-d]pyrimidin]-2′-ylamino}piperidine-1-sulfonamide], in experiment [1], the “CDK2 HIBIT Protein Quantification Maximum” value was determined as 79% and the DC50 worked out at 17.3 nM. In addition, the “CCNE1 HIBIT Protein Quantification Maximum” value in experiment [2] stood at 52.8%. The compound also returned a DC50 in experiment [3] of 17.6 nM.
`CC1CCCC1N1C(=O)C2(CC2)c2cnc(NC3CCN(S(=O)(=O)N4CCC5(CCCN5C(=O)CCCCCc5cccc6c5n(C)c(=O)n6C5CCC(=O)NC5=O)C4)CC3)nc21` (centres unmarked) [Compound 36]: the “CDK2 HIBIT Protein Quantification Maximum” value in experiment [1] amounted to 46%. Further, in experiment [2], the “CCNE1 HIBIT Protein Quantification Maximum” value came to 59%. The same compound yielded a DC50 in experiment [3] of 515 nM. The Dmax in experiment [4] (6 h) amounted to 49%.
On to `CN(CCCN1CCC(c2cccc3c2n(C)c(=O)n3C2CCC(=O)NC2=O)CC1)S(=O)(=O)c1ccc(Nc2ncc3c(n2)N([C@@H]2CCC[C@@H](O)C2)C(=O)C32CC2)cc1` (stereo partly drawn) [Compound 116, N-(3-(4-(1-(2,6-dioxopiperidin-3-yl)-3-methyl-2-oxo-2,3-dihydro-1H-benzo[d]imidazol-4-yl)piperidin-1-yl)propyl)-4-((7′-((1R,3R)-3-hydroxycyclohexyl)-6′-oxo-6′,7′-dihydrospiro[cyclopropane-1,5′-pyrrolo[2,3-d]pyrimidin]-2′-yl)amino)-N-methylbenzenesulfonamide], for which the “CDK2 HIBIT Protein Quantification Maximum” value in experiment [1] came out at 86%. Moreover, the 50% degradation concentration (DC50) worked out at 14 nM in experiment [1], 23.2 nM in experiment [3] and 74.9 nM in experiment [4]. Further, the “CCNE1 HIBIT Protein Quantification Maximum” value in experiment [2] is 75%. Further, in experiment [4] (6 h), the Dmax amounted to 81%.
Consider `CC1CCCC1N1C(=O)C2(CC2)c2cnc(Nc3ccc(S(=O)(=O)N(C)CCCN4CCC(c5cccc6c5n(C)c(=O)n6C5CCC(=O)NC5=O)CC4)cc3)nc21` (centres unmarked) [Compound 117, N-(3-(4-(1-(2,6-dioxopiperidin-3-yl)-3-methyl-2-oxo-2,3-dihydro-1H-benzo[d]imidazol-4-yl)piperidin-1-yl)propyl)-N-methyl-4-((7′-(2-methylcyclopentyl)-6′-oxo-6′,7′-dihydrospiro [cyclopropane-1,5′-pyrrolo[2,3-d]pyrimidin]-2′-yl)amino)benzenesulfonamide], for which, in experiment [1], the “CDK2 HIBIT Protein Quantification Maximum” value was 78%. The results for the DC50 in experiment [1], in experiment [3] and in experiment [4] were 10 nM, 7.43 nM and 21.8 nM, respectively. In addition, in experiment [2], the “CCNE1 HIBIT Protein Quantification Maximum” value came to 64%. For the same compound, the Dmax in experiment [4] (6 h) was determined as 65%.
With `O=C1CCC(N2Cc3cc(CN4CC(Oc5cccc(S(=O)(=O)c6ccc(Nc7ncc8c(n7)N([C@@H]7CCC[C@@H](O)C7)C(=O)C87CC7)cc6)c5)C4)ccc3C2=O)C(=O)N1` (stereo partly drawn) [Compound 125, 3-[5-({3-[3-(4-{7′-[(1R,3R)-3-hydroxycyclohexyl]-6′-oxospiro[cyclopropane-1,5′-pyrrolo [2,3-d]pyrimidin]-2′-ylamino}benzenesulfonyl)phenoxy]azetidin-1-yl}methyl)-1-oxo-3H-isoindol-2-yl]piperidine-2,6-dione], in experiment [1], the “CDK2 HIBIT Protein Quantification Maximum” value amounted to 54% and it took 4 nM to reach half-maximal degradation (DC50). In addition, the “CCNE1 HIBIT Protein Quantification Maximum” value in experiment [2] turned out to be 81%. In experiment [3], it took 2.35 nM to reach half-maximal degradation (DC50). In addition, the Dmax in experiment [4] came out at 13%.
As to `C[C@H](c1cccc(S(=O)(=O)N2CC[C@H](Nc3ncc4c(n3)N([C@@H]3CCC[C@@H](O)C3)C(=O)C43CC3)[C@H](F)C2)c1)N1CCN(c2ccc3c(N4CCC(=O)NC4=O)nn(C)c3c2)[C@@H](C)C1` [Compound 207], in experiment [1], the “CDK2 HIBIT Protein Quantification Maximum” value is given as 90% and the DC50 is 3.5 nM. The “CCNE1 HIBIT Protein Quantification Maximum” value in experiment [2] turned out to be 38%. In experiment [4] (6 h), the Dmax came out at 23%.
`C[C@H](c1cccc(S(=O)(=O)N2CC[C@H](Nc3ncc4c(n3)N([C@@H]3CCC[C@@H](O)C3)C(=O)C43CC3)[C@H](F)C2)c1)N1CCN(c2ccc3c(N4CCC(=O)NC4=O)nn(C)c3c2)[C@H](C)C1` [Compound 208]: in experiment [1], the “CDK2 HIBIT Protein Quantification Maximum” value came out at 91% and the 50% degradation concentration (DC50) turned out to be 4.62 nM. For the same compound, the “CCNE1 HIBIT Protein Quantification Maximum” value in experiment [2] was found to be 45%. Further, the Dmax in experiment [4] (6 h) was 14%.
For `C[C@@H]1CN([C@@H](C)c2cccc(S(=O)(=O)N3CC[C@H](Nc4ncc5c(n4)N([C@@H]4CCC[C@@H](O)C4)C(=O)C54CC4)[C@H](F)C3)c2)CCN1c1ccc2c(N3CCC(=O)NC3=O)nn(C)c2c1` [Compound 209] the same measures were 91%, 12.7 nM, 43% and 16%.

The values are drawn from patent US20260070917A1, “CYCLIN DEPENDENT KINASE DEGRADERS AND METHODS OF USE THEREOF” (Differentiated Therapeutics Inc, priority 2023, published 2026).
